Assay [1] relates to MCF-7 cells. The experiment in a line: Dox/etoposide toxicity after pretreatment with DFMO and/or Pen-ELP-H1 (MTS). The format is cell-based. Particulars: then Dox 750 nM for 72 h. The protocol: FIG. 33-1 is a set of graphs that show proliferation with DFMO and Dox or Etoposide. Cells were pretreated with 20 μM Pen-ELP-H1 or 50 μM DFMO on day 1, and treated with 750 nM Dox (A) or 200 μM etoposide (B) on day 4. Cell viability was determined on day 7 using the MTS cell viability assay. Results represent the mean±SEM of 3 independent experiments.
As a transcription factor, c-Myc influences the transcription levels of a large variety of genes. One of the genes under c-Myc control encodes the enzyme ODC (140). ODC catalyzes the first and rate-limiting step in the synthesis of cellular polyamines (148). […] Above, it was shown that interruption of the c-Myc/Max heterodimer by the Pen-ELP-H1 polypeptide caused a reduction in the steady-state levels of ODC mRNA to less than 40% of control levels (93). This observation led to the hypothesis that modulation of Dox and etoposide toxicity may be due to a reduction in the amount of ODC in the cell. In order to test this hypothesis, a combination of pretreatment with the ODC inhibitor DFMO and/or Pen-ELP-H1 was used in the Dox and etoposide toxicity assay. MCF-7 cells were pretreated with Pen-ELP-H1 (20 μM), DFMO (50 μM), or both before a 72 h exposure to Dox (750 nM) or etoposide (200 μM). […] Similar results were obtained with Pen-ELP-H1 and/or DFMO combined with etoposide (FIG. 33-1 B).

Assay [2] concerns MCF-7 cells. Put plainly: Drug IC50 with and without polypeptide pretreatment (MTS cell viability assay). The format is cell-based. Particulars: for IC50: Homo sapiens, MCF7. Here is the method: The effect of drug concentration on cell viability for Dox (A) or etoposide (B) was determined with and without Pen-ELP-H1 pretreatment. Cells were pretreated on day 1 with 20 μM Pen-ELP-H1 and treated on day 4 with drug. Viability was determined on day 7 using the MTS cell viability assay. A single representative experiment is shown (error bars=SD).
The ability of Pen-ELP-H1 to enhance the effectiveness of chemotherapeutic agents was tested in MCF-7 breast cancer cells. Cells were treated on day 1 with 20 μM Pen-ELP-H1 or a control polypeptide which lacks the c-Myc inhibitory sequence (Pen-ELP) for 1 h, rinsed, and placed in fresh media for 3 days. On day 4, the cells were exposed to the drugs at various concentrations for 72 h, and viability was assessed using the MTS cell viability assay. […] Data from the MTS assay was averaged and fit using an exponential equation in order to calculate the IC50 with and without pretreatment.
Table 3. […] Statistical significance was assessed using an unpaired Student's t-test.
(In general: Formazan colour is commonly taken as a measure of viable cells.)

The test system of assay [3] is HeLa cells. Put plainly: Drug IC50 with and without Pen-ELP-H1 pretreatment. The format is cell-based, human. Conditions: for IC50: Homo sapiens. Here is the method: (§1) Table 4. IC50 values were collected for HeLa and MES-SA cells. The Dox and etoposide IC50 was determined with and without Pen-ELP-H1 pretreatment. Curves were fit using an exponential equation, and the IC50 value shown represents the mean±SEM of at least 5 independent determinations each performed with 4 replicates per drug concentration. Statistical significance was assessed using an unpaired Student's t-test.

For assay [4], the system named is MES-SA cells. Put plainly: Drug IC50 with and without Pen-ELP-H1 pretreatment. The format is cell-based. Particulars: for IC50: Homo sapiens. Here is the method: as §1
The subject of assay [5] is MCF-7 cells. The experiment in a line: Cell cycle distribution by BrdU and propidium iodide flow cytometry. It counts as cell-based. Conditions: for G1 fraction / S phase fraction: day 5; for effect on cell cycle distribution: agent alone (Pen-ELP-H1 20 μM, Dox 100 nM, etoposide 1 μM). The protocol: FIG. 31 is a set of graphs that show cell cycle analysis of MCF-7 Cells after Pen-ELP-H1 Pretreatment before Dox or Etoposide. A. Cells were pretreated with 20 μM Pen-ELP-H1 on day 1 and 100 nM Dox or 1 μM etoposide on day 4 and analyzed on day 5 by flow cytometry with BrdU and propidium iodide staining Raw data for a single representative experiment is shown. 4 independent experiments with Dox (B) and etoposide (C) were averaged. Percentages were determined by analysis of 5000 cells/sample, and results shown represent the mean±SEM.
To gain more insight into the effect of polypeptide and drug treatment, the cell cycle distribution of MCF-7 cells was examined. Cells were treated as above with 20 μM Pen-ELP-H1 on day 1 and Dox (100 nM) or etoposide (1 μM) on day 4. On day 5, the cells were pulsed with BrdU and stained with propidium iodide for flow cytometric analysis of the cell cycle distribution. BrdU was used to accurately estimate the fraction of cells in S-phase, and this was combined with propidium iodide staining to denote each phase of the cell cycle (FIG. 31A). […] The pattern observed with Dox was enhanced upon pretreatment with Pen-ELP-H1, where the G1 fraction increased from about 48% to 53%, and the S phase fraction was reduced from 8% to 5% as compared to treatment with Dox alone (FIG. 31B).
(In flow cytometry, cells or beads pass a laser one at a time.)

Assay [6] addresses c-Myc (UniProt P01106). The experiment in a line: cell-based or functional assay.
Assay [7] concerns Panc-1 cells. The experiment in a line: Panc-1 proliferation with 5-FU alone or after Bac7-ELP1-p21 pretreatment (MTS). It counts as cell-based, human. Here is the method:
Panc-1 cells were treated for 72 h with 5-F-U with or without pre-treatment with Bac7-ELP1-p21 for 1 hr at 42° C. Cell proliferation was assessed by the MTS assay. Bars, SEM of 3 experiments.
Resistance to Current Chemotherapeutic Agents: One of the therapeutic agents currently used in the clinical setting for pancreatic cancer is 5-Fluorouracil (5-FU).

The mark [8] stands for this setting: 20 μM Pen-ELP on day 1, drug on day 4 for 72 h, read-out: IC50 after Pen-ELP pretreatment (mean ± SEM).
[9] abbreviates: 20 μM Pen-ELP-H1 on day 1, drug on day 4 for 72 h, read-out: IC50 after Pen-ELP-H1 pretreatment (mean ± SEM).
Where [10] appears, read: no pretreatment, 72 h drug exposure, read-out: IC50 (mean ± SEM).
The mark [11] stands for this setting: no pretreatment, read-out: IC50 (mean ± SEM).
Setting [12] is: read-out: IC50 after Pen-ELP-H1 pretreatment (mean ± SEM).
Setting [13] is: Dox 100 nM after 20 μM Pen-ELP-H1 pretreatment.

From patent US8841414B1, “Targeted delivery of therapeutic peptides by thermally responsive biopolymers” (University of Mississippi Medical Center, priority 2006, dated 2014) come the findings set out here.

The IC50 is the concentration that gives 50% inhibition.

Read-outs that look alike come from different tables or passages of the source.

UniProt P01106, sequence (P01106 whole entry): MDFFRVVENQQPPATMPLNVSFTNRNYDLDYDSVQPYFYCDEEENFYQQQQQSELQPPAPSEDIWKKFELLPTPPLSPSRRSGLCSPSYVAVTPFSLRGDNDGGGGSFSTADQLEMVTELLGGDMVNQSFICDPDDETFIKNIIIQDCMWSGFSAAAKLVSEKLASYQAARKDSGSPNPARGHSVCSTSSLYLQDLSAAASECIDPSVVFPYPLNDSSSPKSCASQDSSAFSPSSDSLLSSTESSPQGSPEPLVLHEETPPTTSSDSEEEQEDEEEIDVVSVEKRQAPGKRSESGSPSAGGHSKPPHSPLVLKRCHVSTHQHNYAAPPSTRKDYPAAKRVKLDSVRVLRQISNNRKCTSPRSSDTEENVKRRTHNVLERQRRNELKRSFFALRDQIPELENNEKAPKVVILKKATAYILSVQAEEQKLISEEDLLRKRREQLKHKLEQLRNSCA

In the case of `NCCC[C@](N)(C(=O)O)C(F)F` [DFMO, α-difluoromethylornithine], in assay [1] (Pen-ELP-H1 20 μM or DFMO 50 μM), the “enhancement of Dox-induced cell killing by pretreatment” value is listed as “enhanced the Dox-induced cell killing by similar amounts”. Also, the “enhancement of Dox toxicity by pretreatment with the combination of Pen-ELP-H1 and DFMO” value in assay [1] (Pen-ELP-H1 20 μM plus DFMO 50 μM) is on record as “no greater enhancement of Dox toxicity than either agent used alone”.

`COc1cccc2c1C(=O)c1c(O)c3c(c(O)c1C2=O)C[C@@](O)(C(=O)CO)C[C@@H]3O[C@H]1C[C@H](N)[C@H](O)[C@H](C)O1` [Doxorubicin]: the IC50 in assay [2] (setting [8]) was 777 ± 75.1 nM; in assay [2] (setting [9]), 504 ± 35.3 nM; in assay [2] (setting [10]), 752 ± 21.6 nM; in assay [3] (setting [11]), 13.9 ± 1.3 nM; in assay [3] (setting [12]), 9.4 ± 1.2 nM; in assay [4] (setting [11]) it was 33.7 ± 7.1 nM. Further, the IC50 in assay [4] (setting [12]) was 16.3 ± 1.6 nM. In assay [2] (MCF-7), the “reduction in IC50 with Pen-ELP-H1 pretreatment” value is reported as “about 1.5 fold”. Further, the “reduction of IC50 by Pen-ELP-H1 pretreatment” value in assay [3] was 1.5 fold; in assay [4], 2 fold. Besides, the G1 fraction in assay [5] (setting [13]) is listed as 53%; in assay [5] (Dox 100 nM alone) it was “about 48%”. The results for the S phase fraction in assay [5] (setting [13]) and in assay [5] (Dox 100 nM alone) were 5% and 8%, respectively. In assay [5], the “effect on cell cycle distribution” value was “arrest in G1 and G2/M at the expense of S phase”.

Take Pen-ELP1-H1: the steady-state levels of ODC mRNA (% of control levels) in assay [6] is less than 40.

In the case of `O=c1[nH]cc(F)c(=O)[nH]1` [5-FU, 5-Fluorouracil], the “sensitivity of Panc-1 cells to treatment” value in assay [7] (72 h) was “highly resistant”. Besides, the “effect of increasing the concentration on cell proliferation” value in assay [7] (beyond 10 μM, 72 h) was “no increasing effect on cell proliferation”. Further, the “cell proliferation after pretreatment with Bac7-ELP1-p21” value in assay [7] (pretreated 1 h at 42° C. with Bac7-ELP1-p21, then 5-FU 72 h) is reported as “dramatically reduced”.

As for `CC[C@@]1(O)C(=O)OCc2c1cc1n(c2=O)Cc2cc3ccccc3nc2-1` [Camptothecin], the IC50 is 229 ± 46.4 nM in assay [2] (setting [8]), 235 ± 5.8 nM in assay [2] (setting [9]) and 235 ± 9.8 nM in assay [2] (setting [10]). Also, in assay [2] (MCF-7), the “effect of Pen-ELP-H1 or Pen-ELP pretreatment on cell killing by the drug” value is recorded as “no significant effect”.

In the case of `COc1cc([C@@H]2c3cc4c(cc3[C@@H](O[C@@H]3O[C@@H]5CO[C@@H](C)O[C@H]5[C@H](O)[C@H]3O)[C@H]3COC(=O)[C@H]23)OCO4)cc(OC)c1O` [Etoposide], the IC50 in assay [2] (setting [8]) stood at 187000 ± 13800 nM; in assay [2] (setting [9]) it was 141000 ± 3500 nM; in assay [2] (setting [10]), 210000 ± 12400 nM; in assay [3] (setting [11]), 630 ± 59.2 nM; in assay [3] (setting [12]), 465 ± 45.4 nM; in assay [4] (setting [11]), 17300 ± 3100 nM. Further, the IC50 in assay [4] (setting [12]) came to 9800 ± 3100 nM. Further, the “reduction in IC50 with Pen-ELP-H1 pretreatment” value in assay [2] (MCF-7) is “about 1.5 fold”. The “reduction of IC50 by Pen-ELP-H1 pretreatment” value in assay [3] was 1.4 fold; in assay [4], 1.8 fold. Further, the “effect on cell cycle distribution after Pen-ELP-H1 pretreatment” value in assay [5] (20 μM Pen-ELP-H1 day 1, etoposide 1 μM day 4) is “slightly enhanced the etoposide-induced accumulation in G1”. Moreover, the “effect on cell cycle distribution” value in assay [5] is “accumulation in both G1 and G2/M”.
